Patent US20230310464A1, “USE OF C[…] THE TREATMENT OF SEIZURES ASSOCIATED WITH RARE […] SYNDROMES RELATED TO BRAIN INJURY” (GW Research Limited, priority 2020, published 2023)
“Also recorded” adds a separate entry of the source.

Tested on: seizures associated with hypoxic ischaemic encephalopathy (HIE) or anoxia at birth
Assay: Open label, expanded-access program: seizure frequency recorded by caregivers in a diary, relative to baseline
Type: in vivo, human
Design: reduction in tonic seizures over the treatment period / reduction in spasms over the treatment period / reduction in absence seizures over the treatment period / reduction in tonic-clonic seizures over the treatment period / reduction in myoclonic seizures over the treatment period: concentration or dose not given beside the values; Seizure frequency, Tonic / Seizure frequency, Spasm / Seizure frequency, Absence / Seizure frequency, Tonic-clonic / Seizure frequency, Focal with impairment / Seizure frequency, Atonic / Seizure frequency, Focal without impairment / Seizure frequency, Focal secondary generalisation / Seizure frequency, Myoclonic: unit not given here
Experimental: Subjects were required to be on one or more AEDs at stable doses for a minimum of two weeks prior to baseline and to have stable vagus nerve stimulation (VNS) settings and ketogenic diet ratios for a minimum of four weeks prior to baseline.
Dose was then increased weekly by 5 mg/kg/day to a goal of 20 to 25 mg/kg/day.
Modifications were made to concomitant AEDs as per clinical indication.
Seizure frequency, intensity, and duration were recorded by caregivers in a diary during a baseline period of at least 28 days. Changes in seizure frequency relative to baseline were calculated after at least 2 weeks and at defined timepoints of treatment.
Patients may be defined as responders if they had more than 50% reduction in seizure frequency compared to baseline. The percent change in seizure frequency was calculated as follows: […]
The percent change of seizure frequency may be calculated for any time interval where seizure number has been recorded. For the purpose of this example the percent change of seizure frequency for the end of the treatment period was calculated as follows: […]

[1] = Patient 4, 48 weeks, CBD 15.0 mg/kg/day
[2] = Patient 4, 60 weeks, CBD 20.0 mg/kg/day
[3] = Patient 4, treated for 60 weeks, vs baseline
[4] = Patient 5, 2 weeks, CBD 10.0 mg/kg/day
[5] = Patient 5, 4 weeks, CBD 20.0 mg/kg/day
[6] = Patient 5, 8 weeks, CBD 25.0 mg/kg/day
[7] = Patient 5, 12 weeks, CBD 25.0 mg/kg/day
[8] = Patient 5, 16 weeks, CBD 25.0 mg/kg/day
[9] = Patient 6, 2 weeks, CBD 10.0 mg/kg/day
[10] = Patient 6, treated for 2 weeks, vs baseline
[11] = Patient 7, 2 weeks, CBD 5.0 mg/kg/day
[12] = Patient 7, 4 weeks, CBD 10.0 mg/kg/day
[13] = Patient 7, 8 weeks, CBD 20.0 mg/kg/day
[14] = Patient 7, 12 weeks, CBD 25.0 mg/kg/day
[15] = Patient 9, 2 weeks, CBD 15.0 mg/kg/day
[16] = Patient 9, 4 weeks, CBD 20.0 mg/kg/day
[17] = Patient 9, 8 weeks, CBD 25.0 mg/kg/day
[18] = Patient 9, 12 weeks, CBD 25.0 mg/kg/day
[19] = Patient 9, 16 weeks, CBD 25.0 mg/kg/day
[20] = Patient 9, 24 weeks, CBD 25.0 mg/kg/day
[21] = Patient 9, 36 weeks, CBD 25.0 mg/kg/day
[22] = Patient 9, 48 weeks, CBD 25.0 mg/kg/day
[23] = Patient 9, 60 weeks, CBD 25.0 mg/kg/day
[24] = Patient 9, 72 weeks, CBD 25.0 mg/kg/day
[25] = Patient 9, 84 weeks, CBD 25.0 mg/kg/day
[26] = Patient 9, 108 weeks, CBD 25.0 mg/kg/day
[27] = Patient 9, 132 weeks, CBD 25.0 mg/kg/day

C=C(C)[C@@H]1CCC(C)=C[C@H]1c1c(O)cc(CCCCC)cc1O [CBD, cannabidiol]
Seizure frequency, Tonic-clonic (Patient 4, 36 weeks, CBD 15.0 mg/kg/day): 0
Seizure frequency, Atonic [1]: 0
Seizure frequency, Tonic [1]: 0
Seizure frequency, Tonic-clonic [1]: 3.3
Seizure frequency, Atonic [2]: 4.0
Seizure frequency, Tonic [2]: 0
Seizure frequency, Tonic-clonic [2]: 19.3
reduction in tonic seizures over the treatment period [3]: 100%
reduction in tonic-clonic seizures over the treatment period [3]: 87.1%
Seizure frequency, Focal secondary generalisation [4]: 114.0
Seizure frequency, Focal without impairment [4]: 0
Seizure frequency, Focal secondary generalisation [5]: 106.0
Seizure frequency, Focal without impairment [5]: 2.0
Seizure frequency, Focal secondary generalisation [6]: 112.8
Seizure frequency, Focal without impairment [6]: 1.9
Seizure frequency, Focal secondary generalisation [7]: 111.0
Seizure frequency, Focal without impairment [7]: 2.1
Seizure frequency, Focal secondary generalisation [8]: 125.5
Seizure frequency, Focal without impairment [8]: 3.9
reduction in seizures over the treatment period (in words) (Patient 5, treated for 16 weeks): did not experience a reduction in seizures
Seizure frequency, Spasm [9]: 100.0
Seizure frequency, Tonic-clonic [9]: 10.0
reduction in spasms over the treatment period [10]: 53.9%
reduction in tonic-clonic seizures over the treatment period [10]: 28.6%
Seizure frequency, Focal with impairment [11]: 70.0
Seizure frequency, Myoclonic [11]: 58.0
Seizure frequency, Tonic-clonic [11]: 74.0
Seizure frequency, Focal with impairment [12]: 78.0
Seizure frequency, Myoclonic [12]: 18.0
Seizure frequency, Tonic-clonic [12]: 102.0
Seizure frequency, Focal with impairment [13]: 65.3
Seizure frequency, Myoclonic [13]: 65.3
Seizure frequency, Tonic-clonic [13]: 86.7
Seizure frequency, Focal with impairment [14]: 71.0
Seizure frequency, Myoclonic [14]: 7.0
Seizure frequency, Tonic-clonic [14]: 65.0
reduction in myoclonic seizures over the treatment period (Patient 7, treated for 12 weeks, vs baseline): 30%
Seizure frequency, Absence (Patient 8, 4 weeks, CBD 5.0 mg/kg/day): 5376.0
Seizure frequency, Absence (Patient 8, 8 weeks, CBD 5.0 mg/kg/day): 4803.0
Seizure frequency, Absence (Patient 8, 12 weeks, CBD 10.0 mg/kg/day): 3514.0
Seizure frequency, Absence (Patient 8, 24 weeks, CBD 15.0 mg/kg/day): 4284.0
Seizure frequency, Absence (Patient 8, 36 weeks, CBD 20.0 mg/kg/day): 2989.3
Seizure frequency, Absence (Patient 8, 48 weeks, CBD 25.0 mg/kg/day): 3360.0
Seizure frequency, Absence (Patient 8, 60 weeks, CBD 25.0 mg/kg/day): 3136.0
Seizure frequency, Absence (Patient 8, 72 weeks, CBD 25.0 mg/kg/day): 2968.0
Seizure frequency, Absence (Patient 8, 84 weeks, CBD 25.0 mg/kg/day): 2718.0
reduction in absence seizures over the treatment period (Patient 8, treated for 84 weeks, vs baseline): 64%
Seizure frequency, Myoclonic [15]: 2.0
Seizure frequency, Tonic [15]: 118.0
Seizure frequency, Myoclonic [16]: 1.0
Seizure frequency, Tonic [16]: 88.0
Seizure frequency, Myoclonic [17]: 0
Seizure frequency, Tonic [17]: 48.0
Seizure frequency, Myoclonic [18]: 0
Seizure frequency, Tonic [18]: 92.0
Seizure frequency, Myoclonic [19]: 0
Seizure frequency, Tonic [19]: 90.0
Seizure frequency, Myoclonic [20]: 0
Seizure frequency, Tonic [20]: 142.4
Seizure frequency, Myoclonic [21]: 0
Seizure frequency, Tonic [21]: 53.0
Seizure frequency, Myoclonic [22]: 0
Seizure frequency, Tonic [22]: 98.0
Seizure frequency, Myoclonic [23]: 0
Seizure frequency, Tonic [23]: 95.6
Seizure frequency, Myoclonic [24]: 0
Seizure frequency, Tonic [24]: 96.0
Seizure frequency, Myoclonic [25]: 0
Seizure frequency, Tonic [25]: 99.2
Seizure frequency, Myoclonic [26]: 0
Seizure frequency, Tonic [26]: 69.0
Seizure frequency, Myoclonic [27]: 0
Seizure frequency, Tonic [27]: 76.8
Seizure frequency, Absence (Patient 10, 4 weeks, CBD 5.0 mg/kg/day): 10.0
Seizure frequency, Absence (Patient 10, 12 weeks, CBD 10.0 mg/kg/day): 610.0
Seizure frequency, Absence (Patient 10, 24 weeks, CBD 15.0 mg/kg/day): 304.0
Seizure frequency, Absence (Patient 10, 36 weeks, CBD 20.0 mg/kg/day): 2184.6
Seizure frequency, Absence (Patient 10, 48 weeks, CBD 25.0 mg/kg/day): 1957.3
Seizure frequency, Absence (Patient 10, 60 weeks, CBD 25.0 mg/kg/day): 1520.3
Seizure frequency, Absence (Patient 10, 72 weeks, CBD 25.0 mg/kg/day): 1655.6
Seizure frequency, Absence (Patient 10, 84 weeks, CBD 25.0 mg/kg/day): 1626.6
Seizure frequency, Absence (Patient 10, 96 weeks, CBD 25.0 mg/kg/day): 1678.3
Seizure frequency, Absence (Patient 10, 120 weeks, CBD 25.0 mg/kg/day): 1644.5
Seizure frequency, Absence (Patient 10, 132 weeks, CBD 25.0 mg/kg/day): 1370.8
reduction in absence seizures over the treatment period (Patient 10, treated for 132 weeks, vs baseline): 54.3%
time of CBD treatment after which patient became seizure free of tonic seizures (patient #2): 36 weeks
time of CBD treatment after which patient became seizure free of tonic seizures (patient #4): 12 weeks
seizure freedom in patients with tonic seizures (in words) (patients 2 and 4, between 12 and 36 weeks of treatment): completely seizure free
effect on seizures / seizure frequency (in words) (tonic, tonic-clonic, atonic, myoclonic, absence, focal seizures with impairment and spasms, HIE or anoxia at birth): effective in reducing the frequency; also recorded: significantly reduce the number of seizures; also recorded: significant reduction
